ChEMBL document CHEMBL1201862, “PubChem BioAssay data set” (2004)
The source made the active and inactive calls.

What was measured:
Paired box protein Pax-8 = Paired box protein Pax-8 (Homo sapiens, UniProt Q06710); assay: PAX8 transcriptional activity inhibition in RMG-I – RMG-I cells, luciferase, cherry-pick, dose response (AID 687027); assay type: functional, cell-based;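 further: luciferase reporter driven by Pax8 target thyroperoxidase promoter measured by SteadyGlo luminescence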
[1] = general cell-killing toxicity readout – plate reader, dry powder samples, cytotoxicity control for PAX8 inhibitor project, dose response (AID 743021); assay type: functional, cell-based
[2] = activation of miR-122 Renilla sensor silencing – cell-based, Huh7 psiCHECK-miR122, Renilla luciferase, cherry-picked, dose response (AID 651956); assay type: functional;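 further: huh7 hepatoma cells stably carrying a psiCHECK-2 miR-122 sensor plasmid; renilla luciferase signal reporting endogenous miR-122 activity after 48 h compound exposure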
[3] = general mammalian cell viability loss – activator set, cherry-pick, cytotoxicity control for miR-122 modulator project, dose response (AID 720690); assay type: functional, cell-based;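 further: HEK293T human cells scored for general mammalian cytotoxicity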
[4] = inhibitors acting on PAX2 in cells – cell-based, plate reader, dry powder samples, selectivity assay for PAX8 inhibitor project, dose response (AID 743048); assay type: functional;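 further: HEK293 cells carrying a WT1 promoter luciferase reporter driven by expressed Pax2; potency is for inhibition of Pax2 driven reporter signal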
[5] = toxicity to human hepatoma HepG2 cells – cell-based, cherry-picked samples, cytotoxicity control, dose response (AID 1159577); assay type: functional
[6] = Dd2 malaria parasite growth inhibition potency – SYBR Green, dry powder samples, dose response (AID 1159566); assay type: functional, cell-based;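 further: potency for growth inhibition with lower SYBR green DNA signal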
[7] = growth inhibition of PfATP4-mutant resistant parasites – NITD609-resistant line, SYBR Green, dry powder, dose response (AID 1159571); assay type: functional, cell-based;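 further: parasites synchronized at ring stage by sorbitol before testing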
[8] = P. falciparum Dd2 growth inhibitors, dose response, SYBR Green, cherry-picked samples (AID 1159567); assay type: functional, cell-based
[9] = toxicity to human HepG2 hepatoma cells – cell-based, plate reader, dry powder samples, cytotoxicity control, dose response (AID 1159569); assay type: functional;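 further: inhibitor potency with signal falling toward the positive control level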
[10] = PAX5 cellular inhibition readout – cell-based, plate reader, dry powder samples, selectivity assay for PAX8 inhibitor project, dose response (AID 743047); assay type: functional;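 further: HEK293 cells carrying a Pax5 driven CD19 promoter luciferase reporter; potency of inhibitors that lower reporter luminescence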
[11] = COV434 cell viability loss – plate reader, dry powder, SA7, cytotoxicity control for PAX8 inhibitor project, dose response (AID 743145); assay type: functional, cell-based
[12] = growth inhibition of yeast DHODH-expressing 3D7 parasites – SYBR Green, dry powder samples, dose response (AID 1159570); assay type: functional, cell-based;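 further: parasite growth measured after 72 hours of compound exposure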
[13] = A2780 cell killing – plate reader, dry powder samples, cytotoxicity control, dose response (AID 743046); assay type: functional, cell-based
[14] = OVCAR8 cell viability loss – plate reader, dry powder samples, PAX8 project, dose response (AID 743197); assay type: functional, cell-based; details: OVCAR-8
[15] = OVCAR-3 cell viability loss – plate reader, dry powder samples, PAX8 inhibitor project, dose response (AID 743044); assay type: functional, cell-based
[16] = blockers of HIV-1 envelope-mediated cell-cell fusion – cherry-pick, dose response (AID 652057); assay type: functional, cell-based
[17] = blockers of HIV-1 ZM109 envelope-driven cell-cell fusion – HeLa effector, CEM target cells, luciferase, cherry-pick, dose response (AID 652058); assay type: functional, cell-based;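 further: luciferase signal from HIV-1 Env mediated cell-cell fusion of effector and target cells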
[18] = inhibition of Env-driven cell fusion – HIV entry, plate reader, dry powder, dose response (AID 687023); assay type: functional, cell-based
[19] = target: RNA-editing ligase 1, mitochondrial (Trypanosoma brucei brucei, UniProt P86926); assay: inhibition of trypanosome RNA editing ligase – biochemical, fluorescence, Trypanosoma brucei, dose response (AID 1117295); assay type: functional
Bcl-2-related protein A1 = target: T1, Bcl-2-related protein A1 (Mus musculus, UniProt Q07440); assay type: functional;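 further: confirmatory dose–response counterscreen on Bfl-1, used to check hits from a UBC13 polyubiquitin inhibitor campaign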
T1 sequence (Q07440 whole entry): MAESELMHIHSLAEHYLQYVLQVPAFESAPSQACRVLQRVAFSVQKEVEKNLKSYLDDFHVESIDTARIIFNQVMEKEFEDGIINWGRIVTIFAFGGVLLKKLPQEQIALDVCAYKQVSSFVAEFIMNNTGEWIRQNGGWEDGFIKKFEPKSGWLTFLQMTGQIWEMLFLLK

[20] = HPDE-C7 pancreatic duct cell viability loss – fluorescence, HTS (AID 430); assay type: functional, cell-based; details: Homo sapiens
NADPH oxidase 1 = target: T2, NADPH oxidase 1 (Homo sapiens, UniProt Q9Y5S8); assay type: functional, cell-based;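 further: Cell-based assay with luminescence read-out, IC50 derived from inhibitor dose-response curves; intracellular ROS from endogenous NOX1 in intact HT29 colon cancer cells; potency of inhibitors that lower the ROS luminescence signal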
T2 sequence (Q9Y5S8 whole entry): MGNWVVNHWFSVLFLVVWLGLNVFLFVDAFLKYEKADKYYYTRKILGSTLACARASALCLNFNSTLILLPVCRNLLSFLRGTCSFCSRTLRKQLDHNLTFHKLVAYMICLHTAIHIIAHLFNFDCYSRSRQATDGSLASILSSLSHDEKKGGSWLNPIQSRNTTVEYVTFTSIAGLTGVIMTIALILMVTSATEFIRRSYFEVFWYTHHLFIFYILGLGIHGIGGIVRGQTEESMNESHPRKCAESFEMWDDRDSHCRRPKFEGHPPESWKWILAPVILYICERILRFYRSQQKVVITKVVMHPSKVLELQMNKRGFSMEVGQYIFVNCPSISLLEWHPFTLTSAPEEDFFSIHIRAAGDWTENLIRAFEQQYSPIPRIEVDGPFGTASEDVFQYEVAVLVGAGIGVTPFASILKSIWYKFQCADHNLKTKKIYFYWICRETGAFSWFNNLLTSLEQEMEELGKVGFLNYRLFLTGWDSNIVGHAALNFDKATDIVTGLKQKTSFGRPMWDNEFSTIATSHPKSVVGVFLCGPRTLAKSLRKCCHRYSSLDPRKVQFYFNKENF

[21] = target: T3, Ubiquitin-conjugating enzyme E2 N (Homo sapiens, UniProt P61088); assay type: functional
T3 sequence (P61088 whole entry): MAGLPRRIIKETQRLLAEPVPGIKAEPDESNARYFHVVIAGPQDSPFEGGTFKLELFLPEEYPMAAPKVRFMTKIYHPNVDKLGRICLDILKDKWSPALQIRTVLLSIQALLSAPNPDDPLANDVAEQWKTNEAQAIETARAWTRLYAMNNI

[22] = target: T3, Ubiquitin-conjugating enzyme E2 N; assay type: functional; remark: listed apart in the source
[23] = Potency on glucagon-like peptide 1 release, dose-response in NCI-H716 cell line, half maximal inhibitory concentration (AID 1117344); assay type: functional, cell-based
[24] = viability loss of HPDE-C7K cells – cell-based, fluorescence, HTS, primary screen (AID 431); assay type: functional; details: Homo sapiens
[25] = glucagon-like peptide-1 release potency in STC-1, concentration-response, half-maximal inhibitory concentration in the STC-1 line (AID 1117345); assay type: functional, cell-based

Chain of Paired box protein Pax-8 (Q06710 whole entry): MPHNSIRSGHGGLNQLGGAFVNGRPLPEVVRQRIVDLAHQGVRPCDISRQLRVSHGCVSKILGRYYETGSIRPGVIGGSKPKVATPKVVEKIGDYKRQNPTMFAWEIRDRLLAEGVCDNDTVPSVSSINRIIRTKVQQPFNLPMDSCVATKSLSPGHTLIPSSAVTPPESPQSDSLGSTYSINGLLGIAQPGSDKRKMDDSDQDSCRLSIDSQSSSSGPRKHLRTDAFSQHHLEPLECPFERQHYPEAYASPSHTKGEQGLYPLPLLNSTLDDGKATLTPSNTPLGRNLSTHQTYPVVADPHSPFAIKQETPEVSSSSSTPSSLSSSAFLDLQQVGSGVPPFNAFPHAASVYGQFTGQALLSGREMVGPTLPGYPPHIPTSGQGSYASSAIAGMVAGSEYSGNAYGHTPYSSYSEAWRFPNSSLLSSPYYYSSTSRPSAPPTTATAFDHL
Chain of RNA-editing ligase 1, mitochondrial (P86926 whole entry): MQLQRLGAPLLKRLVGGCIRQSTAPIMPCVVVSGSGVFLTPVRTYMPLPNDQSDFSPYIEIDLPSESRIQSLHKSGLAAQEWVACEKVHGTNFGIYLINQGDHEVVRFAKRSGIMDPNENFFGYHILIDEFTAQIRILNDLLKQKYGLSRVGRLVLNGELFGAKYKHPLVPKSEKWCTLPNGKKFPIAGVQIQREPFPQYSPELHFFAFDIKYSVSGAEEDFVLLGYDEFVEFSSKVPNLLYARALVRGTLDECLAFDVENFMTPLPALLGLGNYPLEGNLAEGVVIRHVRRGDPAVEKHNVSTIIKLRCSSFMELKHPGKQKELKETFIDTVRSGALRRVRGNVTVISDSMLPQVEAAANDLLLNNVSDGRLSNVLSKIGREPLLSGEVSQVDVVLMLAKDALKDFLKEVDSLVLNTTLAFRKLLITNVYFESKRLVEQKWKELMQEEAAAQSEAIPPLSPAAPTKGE

With `Nc1nc(N)c2c(ccc3c2ccn3Cc2cccc([N+](=O)[O-])c2)n1` the AC50 (Paired box protein Pax-8) was 1.5 µM (active) and the AC50 [1] was 20.3 µM (active).

With `C[C@@H]1CN([C@@H](C)CO)C(=O)Cc2cc(NC(=O)C3CCCCC3)ccc2O[C@H]1CN(C)Cc1ccc(-c2ccccc2)cc1` the AC50 [2] was 14.3 µM (active) and the AC50 [3] was 16.8 µM (active).

In the case of `COc1ccccc1C#Cc1ccc([C@@H]2[C@@H](C#N)N(C(=O)C3CCCCC3)[C@H]2CO)cc1`, the AC50 [4] is reported as 31.9 µM (active), the AC50 [5] is reported as > 39 µM (inactive) and the AC50 (Paired box protein Pax-8) is reported as 6.05 µM (active). For the same compound, the AC50 [6] was 0.562 µM (active), the AC50 [7] was 1.14 µM (active) and the AC50 [8] was 1.37 µM (active). The AC50 [9] was 21.8 µM (active), the AC50 [10] was 24.2 µM (active) and the AC50 [11] was > 70 µM (inactive). The AC50 [12] was 0.689 µM (active).

For `Cc1noc(C)c1S(=O)(=O)N(C)C[C@H]1OCCCC[C@@H](C)Oc2ccc(NS(=O)(=O)c3ccc(Cl)cc3)cc2C(=O)N([C@@H](C)CO)C[C@@H]1C`, the AC50 (Paired box protein Pax-8) was 10.5 µM (active), the AC50 [13] was 12.1 µM (active) and the AC50 [14] was > 70 µM (inactive). The AC50 [15] was 46.2 µM (active).

In the case of `Cc1ccc(S(=O)(=O)N(C)C[C@@H]2Oc3ccc(NS(=O)(=O)c4c(C)noc4C)cc3CC(=O)N([C@H](C)CO)C[C@@H]2C)cc1`, the AC50 [16] is reported as 23.2 µM (active), the AC50 [17] is reported as 5.38 µM (active) and the AC50 [18] is reported as 11.4 µM (active).

In the case of `C[C@@H]1CN([C@@H](C)CO)C(=O)c2c(c3ccccc3n2C)-c2ccccc2CO[C@H]1CN(C)C(=O)Nc1cccc(Cl)c1Cl`, the AC50 [5] is reported as > 39 µM (inactive), the AC50 [6] is reported as 1.49 µM (active) and the AC50 [7] is reported as 2.21 µM (active). For the same compound, the AC50 [8] was 1.86 µM (active), the AC50 [9] was 27.4 µM (active) and the AC50 [12] was 2.3 µM (active).

For `COC(=O)C1=C(C)N(Cc2ccccc2C(F)(F)F)C(NCc2ccc(C(F)(F)F)cc2)=NC1c1ccc(C(F)(F)F)cc1` (stereo unspecified), the IC50 [19] was > 96.6 µM (inactive).

With `OCCN1CCN(CCCN2c3ccccc3Sc3ccc(Cl)cc32)CC1` [PERPHENAZINE] the IC50 (Bcl-2-related protein A1) was > 20 µM (inactive), the EC50 [20] was 10.4 µM (active) and the IC50 (NADPH oxidase 1) was > 17 µM (not active). The IC50 [21] was 13.4 µM (active), the IC50 [22] was 16.2 µM (active) and the IC50 [23] was 7.37 µM (inactive). For the same compound, the EC50 [24] was 10.5 µM (active) and the IC50 [25] was 15.5 µM (inactive).
